Values quoted from earlier work as cited in US11207297B2, “Liquid pharmaceutical composition of clonidine” (SYRI LTD, priority 2016, dated 2021).

Settings: after oral administration

Clc1cccc(Cl)c1N=C1NCCN1 [clonidine, N-(2,6-dichlorophenyl)-4,5-dihydro-1H-imidazol-2-amine]
Absorption from the gastrointestinal tract: almost completely absorbed
